This is an account of results in US8383619B2, “Pharmaceutical compounds” (Astex Therapeutics Limited, priority 2008, dated 2013).

A short description of series [1]: Liver homogenate stability. The class given is in vitro ADME. Conditions: 1 μM, 37° C., 120 mins. From the text:
(§1) The breakdown of a prodrug in vivo could occur in one or more of several different compartments including for example, but not limited to blood/plasma, liver, stomach, target tissue (e.g. tumour). The preferred location for optimum formation of the parent drug will depend on the disposition in vivo of the pro-drug and parent and an understanding of the optimum concentrations of each required in the circulation to maximise exposure to the active moiety in the target tissue. The potential for pro-drug molecules to deliver the active parent drug may be assessed in vitro by measuring the breakdown of a pro-drug in the presence of relevant body fluids. For the purpose of gaining a preliminary understanding of the stability of compounds of the invention to enzymatic hydrolysis in two such bodily compartments, compound turnover has been studied following incubation in whole blood and liver homogenate from mice and humans. The data obtained from these studies provide a preliminary understanding of which of the prodrugs are better able to deliver parent compound (i.e. are more rapidly broken down to parent compound) in these compartments. Further studies could also determine stability in other compartments (e.g. in the target tumours by measuring stability in tumour lysates).
Mouse livers were obtained from 20 male mice, strain: Balb/c from stock animals. Human liver tissue was obtained from 3 individuals sourced from a UK human tissue bank. The livers were stored frozen. The livers were defrosted and then homogenised to form a homogenate of approximately 30% (w/v) in phosphate buffer, 100 mM, pH 7.4 (referred to as ‘buffer’). Homogenates were kept on ice until use.
(§2) Each incubation consisted of a volume of 1 mL. Test compound dosing solutions were then spiked into each homogenate at a final compound concentration of 1 μM. Incubations were performed in the atmosphere in a shaking water bath at 37° C.
(§3) An aliquot of incubation samples was removed into an equal volume of ice-cold acetonitrile at various time points. Samples (whole blood/homogenate+acetonitrile) were centrifuged and aliquots of the supernatant were analysed by HPLC-MS/MS.
(§4) The compound X (2,4-dihydroxy-5-isopropyl-phenyl)-[5-(4-methyl-piperazin-1-ylmethyl)-1,3-dihydro-isoindol-2-yl]-methanone) and the compounds of Examples 1 to 24 were incubated in both whole blood and liver homogenate by Quotient Bioresearch (Rushden, UK). The percentage remaining of parent compound following incubation in whole blood/liver homogenate from human and mouse are set out in the table below.

The next series is described as follows: Whole blood stability. The class given is in vitro ADME. Conditions: 1 μM, 37° C.
Excerpt: as §1
For these studies, human whole blood was collected from 3 male healthy volunteers in lithium heparin tubes. The blood was pooled and stored at room temperature for a maximum of 2 hours prior to initiation of incubations. Mouse blood was collected from 70 male mice, strain: Balb/c into lithium heparin tubes and pooled.
as §2, §3, §4

Series [2] is described as follows: Tolerability, four consecutive daily doses. The series is classed as in vivo, mouse. To be noted: four consecutive daily doses at 240 μmoles/kg.

Where a name gives a salt, the structure may show the parent alone.

On to `COCOc1cc(O)c(C(=O)N2Cc3ccc(CN4CCN(C)CC4)cc3C2)cc1C(C)C` [Example 8, [2-Hydroxy-5-isopropyl-4-(methoxymethyloxy)-phenyl]-[5-(4-methyl-piperazin-1-ylmethyl)-1,3-dihydro-isoindol-2-yl]-methanone], for which, in series [1], the “Percentage remaining Human Liver” value is 102% and the “Percentage remaining Mouse Liver” value turned out to be 79%. For the same compound, in the series “Whole blood stability” (120 mins), the “Percentage remaining Human blood” value is listed as 114% and the “Percentage remaining Mouse blood” value was 104%.

Consider `COCOc1cc(OCOC)c(C(C)C)cc1C(=O)N1Cc2ccc(CN3CCN(C)CC3)cc2C1` [Example 9, [5-Isopropyl-2,4-bis-(methoxymethyloxy)-phenyl]-[5-(4-methyl-piperazin-1-ylmethyl)-1,3-dihydro-isoindol-2-yl]-methanone], for which, in series [1], the “Percentage remaining Human Liver” value was determined as 98% and the “Percentage remaining Mouse Liver” value stood at 82%. Besides, the “Percentage remaining Mouse blood” value in the series “Whole blood stability” (60 mins (footnote *)) amounted to 105% *. In addition, the “Percentage remaining Human blood” value in “Whole blood stability” (120 mins) is 111%.

Regarding `CCN(CC)C(=O)Oc1cc(OC(=O)N(CC)CC)c(C(C)C)cc1C(=O)N1Cc2ccc(CN3CCN(C)CC3)cc2C1` [Example 10], in series [1], the “Percentage remaining Human Liver” value was 56% and the “Percentage remaining Mouse Liver” value turned out to be 60%. For the same compound, in the series “Whole blood stability” (120 mins), the “Percentage remaining Human blood” value was 108% and the “Percentage remaining Mouse blood” value came out at 93%.

As to `CC(C)c1cc(C(=O)N2Cc3ccc(CN4CCN(C)CC4)cc3C2)c(OC(=O)N(C)C)cc1OC(=O)N(C)C` [Example 11, dimethyl-carbamic acid 5-dimethylcarbamoyloxy-2-isopropyl-4-[5-(4-methyl-piperazin-1-ylmethyl)-1,3-dihydro-isoindole-2-carbonyl]-phenyl ester], in series [1], the “Percentage remaining Human Liver” value was 31% and the “Percentage remaining Mouse Liver” value is listed as 1%. Also, the tolerability result in series [2] was “well tolerated”. Moreover, in “Whole blood stability” (120 mins), the “Percentage remaining Human blood” value is given as 93% and the “Percentage remaining Mouse blood” value worked out at 38%.

Regarding `CC(C)c1cc(C(=O)N2Cc3ccc(CN4CCN(C)CC4)cc3C2)c(OC(=O)N2CCCC2)cc1OC(=O)N1CCCC1` [Example 12, 2-[2,4-bis-(pyrrolidin-1-ylcarbonyloxy)-5-isopropyl-benzoyl]-5-(4-methyl-piperazin-1-ylmethyl)-1,3-dihydro-isoindole], in series [1], the “Percentage remaining Human Liver” value is 43% and the “Percentage remaining Mouse Liver” value is recorded as 1%. Besides, in the series “Whole blood stability” (120 mins), the “Percentage remaining Human blood” value was determined as 110% and the “Percentage remaining Mouse blood” value was determined as 37%.

As to `CC(C)c1cc(C(=O)N2Cc3ccc(CN4CCN(C)CC4)cc3C2)c(OC(=O)N2CCOCC2)cc1OC(=O)N1CCOCC1` [Example 13, 2-[2,4-bis-(morpholin-4-ylcarbonyloxy)-5-isopropyl-benzoyl]-5-(4-methyl-piperazin-1-ylmethyl)-1,3-dihydro-isoindole], in series [1], the “Percentage remaining Human Liver” value is 0% and the “Percentage remaining Mouse Liver” value turned out to be 0%. Further, in “Whole blood stability” (120 mins), the “Percentage remaining Human blood” value was determined as 76% and the “Percentage remaining Mouse blood” value worked out at 0%.

As to `CCN(CC)C(=O)Oc1cc(O)c(C(C)C)cc1C(=O)N1Cc2ccc(CN3CCN(C)CC3)cc2C1` [Example 14, Diethyl-carbamic acid 5-hydroxy-4-isopropyl-2-[5-(4-methyl-piperazin-1-ylmethyl)-1,3-dihydro-isoindole-2-carbonyl]-phenyl ester], in series [1], the “Percentage remaining Human Liver” value was 88% and the “Percentage remaining Mouse Liver” value stood at 89%. Besides, in “Whole blood stability” (120 mins), the “Percentage remaining Human blood” value was determined as 94% and the “Percentage remaining Mouse blood” value was 94%.

As to `CCN(CC)C(=O)Oc1cc(O)c(C(=O)N2Cc3ccc(CN4CCN(C)CC4)cc3C2)cc1C(C)C` [Example 15, Diethyl-carbamic acid 5-hydroxy-2-isopropyl-4-[5-(4-methyl-piperazin-1-ylmethyl)-1,3-dihydro-isoindole-2-carbonyl]-phenyl ester], in series [1], the “Percentage remaining Human Liver” value amounted to 35% and the “Percentage remaining Mouse Liver” value is recorded as 26%. Besides, in “Whole blood stability” (120 mins), the “Percentage remaining Human blood” value worked out at 123% and the “Percentage remaining Mouse blood” value amounted to 58%.

`CC(C)c1cc(C(=O)N2Cc3ccc(CN4CCN(C)CC4)cc3C2)c(OC(=O)N(C)C)cc1O` [Example 16, dimethyl-carbamic acid 5-hydroxy-4-isopropyl-2-[5-(4-methyl-piperazin-1-ylmethyl)-1,3-dihydro-isoindole-2-carbonyl]-phenyl ester]: in series [1], the “Percentage remaining Human Liver” value amounted to 73% and the “Percentage remaining Mouse Liver” value is 82%. Further, in the series “Whole blood stability” (120 mins), the “Percentage remaining Human blood” value turned out to be 104% and the “Percentage remaining Mouse blood” value is 91%.

In the case of `CC(C)c1cc(C(=O)N2Cc3ccc(CN4CCN(C)CC4)cc3C2)c(OC(=O)N2CCCC2)cc1O` [Example 18, 2-[2-(pyrrolidin-1-ylcarbonyloxy)-4-hydroxy-5-isopropyl-benzoyl]-5-(4-methyl-piperazin-1-ylmethyl)-1,3-dihydro-isoindole], in series [1], the “Percentage remaining Human Liver” value stood at 65% and the “Percentage remaining Mouse Liver” value was 80%. The “Percentage remaining Mouse blood” value in “Whole blood stability” (60 mins (footnote *)) was found to be 103% *. The “Percentage remaining Human blood” value in the series “Whole blood stability” (120 mins) was found to be 110%.

Regarding `CC(C)c1cc(C(=O)N2Cc3ccc(CN4CCN(C)CC4)cc3C2)c(O)cc1OC(=O)N1CCCC1` [Example 19, 2-[4-(pyrrolidin-1-ylcarbonyloxy)-2-hydroxy-5-isopropyl-benzoyl]-5-(4-methyl-piperazin-1-ylmethyl)-1,3-dihydro-isoindole], in series [1], the “Percentage remaining Human Liver” value is on record as 0% and the “Percentage remaining Mouse Liver” value was 0%. For the same compound, in “Whole blood stability” (60 mins (footnote *)), the “Percentage remaining Mouse blood” value turned out to be 79% *. Also, the “Percentage remaining Human blood” value in “Whole blood stability” (120 mins) was determined as 102%.

`CC(C)c1cc(C(=O)N2Cc3ccc(CN4CCN(C)CC4)cc3C2)c(OC(=O)N2CCOCC2)cc1O` [Example 20, 2-[2-(morpholin-4-ylcarbonyloxy)-4-hydroxy-5-isopropyl-benzoyl]-5-(4-methyl-piperazin-1-ylmethyl)-1,3-dihydro-isoindole]: in series [1], the “Percentage remaining Human Liver” value was determined as 23% and the “Percentage remaining Mouse Liver” value is 45%. Moreover, in “Whole blood stability” (120 mins), the “Percentage remaining Human blood” value is reported as 97% and the “Percentage remaining Mouse blood” value stood at 16%.

On to `CC(C)c1cc(C(=O)N2Cc3ccc(CN4CCN(C)CC4)cc3C2)c(O)cc1OC(=O)N1CCOCC1` [Example 21, 2-[4-(morpholin-4-ylcarbonyloxy)-2-hydroxy-5-isopropyl-benzoyl]-5-(4-methyl-piperazin-1-ylmethyl)-1,3-dihydro-isoindole], for which, in series [1], the “Percentage remaining Human Liver” value is reported as 0% and the “Percentage remaining Mouse Liver” value is on record as 0%. Also, in the series “Whole blood stability” (120 mins), the “Percentage remaining Human blood” value was found to be 82% and the “Percentage remaining Mouse blood” value is recorded as 0%.

On to `CC(C)c1cc(C(=O)N2Cc3ccc(CN4CCN(C)CC4)cc3C2)c(OC(=O)OC(C)(C)C)cc1OC(=O)N(C)C` [Example 22, Carbonic acid tert-butyl ester 5-dimethylcarbamoyloxy-4-isopropyl-2-[5-(4-methyl-piperazin-1-ylmethyl)-1,3-dihydro-isoindole-2-carbonyl]-phenyl ester], for which, in series [1], the “Percentage remaining Human Liver” value was determined as 6% and the “Percentage remaining Mouse Liver” value was 0%. In the series “Whole blood stability” (120 mins), the “Percentage remaining Human blood” value stood at 18% and the “Percentage remaining Mouse blood” value was found to be 0%.

`CC(C)c1cc(C(=O)N2Cc3ccc(CN4CCN(C)CC4)cc3C2)c(OC(=O)OC(C)(C)C)cc1OC(=O)OC(C)(C)C` [Example 23, Carbonic acid 5-tert-butoxycarbonyloxy-4-isopropyl-2-[5-(4-methyl-piperazin-1-ylmethyl)-1,3-dihydro-isoindole-2-carbonyl]-phenyl ester tert-butyl ester]: in series [1], the “Percentage remaining Human Liver” value amounted to 1% and the “Percentage remaining Mouse Liver” value worked out at 0%. Also, in the series “Whole blood stability” (120 mins), the “Percentage remaining Human blood” value worked out at 26% and the “Percentage remaining Mouse blood” value is given as 0%.

Regarding `CC(C)c1cc(C(=O)N2Cc3ccc(CN4CCN(C)CC4)cc3C2)c(OC(=O)C(C)(C)C)cc1OC(=O)C(C)(C)C` [Example 24, 2,2-Dimethyl-propionic acid 5-(2,2-dimethyl-propionyloxy)-2-isopropyl-4-[5-(4-methyl-piperazin-1-ylmethyl)-1,3-dihydro-isoindole-2-carbonyl]-phenyl ester dihydrochloride], in series [1], the “Percentage remaining Human Liver” value came to 2% and the “Percentage remaining Mouse Liver” value was 0%. Besides, in “Whole blood stability” (120 mins), the “Percentage remaining Human blood” value was 11% and the “Percentage remaining Mouse blood” value was found to be 0%.
